Experimental data from ChEMBL document CHEMBL5150066, “Synthesis of estrone selenocyanate Compounds, anti-tumor activity evaluation and Structure-activity relationship analysis” (Bioorg Med Chem, 2022).

Key:
T47D = assay: Antiproliferative activity against human T47D cells assessed as inhibition of cell growth incubated for 72 hrs by MTT assay; format: functional, cell-based
HeLa = assay: Antiproliferative activity against human HeLa cells assessed as inhibition of cell growth incubated for 72 hrs by MTT assay; format: functional, cell-based
HepG2 = assay: Antiproliferative activity against human HepG2 cells assessed as inhibition of cell growth incubated for 72 hrs by MTT assay; format: functional, cell-based; settings: HepG2, 72 h
MCF7 = assay: Antiproliferative activity against human MCF7 cells assessed as inhibition of cell growth incubated for 72 hrs by MTT assay; format: functional, cell-based; settings: MCF7, 72 h
[1] = Cytotoxicity against HEK293T cells assessed as inhibition of cell growth incubated for 72 hrs by MTT assay; format: toxicity, cell-based, HEK-293T; settings: human
SK-OV-3 [2] = assay: Antiproliferative activity against human SK-OV-3 cells assessed as inhibition of cell growth incubated for 72 hrs by MTT assay; format: functional, cell-based; settings: SK-OV-3, 72 h
SK-OV-3 [3] = assay: Induction of apoptosis in human SK-OV-3 cells assessed as late apoptotic cells at 25 umol/L incubated for 24 hrs by Annexin V-FITC/PI staining based flow cytometric analysis (reference value: 5.51 %); format: functional; settings: dose 25 µmol/L, at 25 µM
SK-OV-3 [4] = assay: Induction of apoptosis in human SK-OV-3 cells assessed as late apoptotic cells at 15 umol/L incubated for 24 hrs by Annexin V-FITC/PI staining based flow cytometric analysis (reference value: 5.51 %); format: functional; settings: dose 15 µmol/L, at 15 µM
SK-OV-3 [5] = assay: Induction of apoptosis in human SK-OV-3 cells assessed as viable cells at 10 umol/L incubated for 24 hrs by Annexin V-FITC/PI staining based flow cytometric analysis (reference value: 89.83 %); format: functional; settings: SK-OV-3, 24 h, dose 10 µmol/L, read-out: Activity
SK-OV-3 [6] = assay: Induction of apoptosis in human SK-OV-3 cells assessed as necrotic cells at 5 umol/L incubated for 24 hrs by Annexin V-FITC/PI staining based flow cytometric analysis (reference value: 0.00 %); format: functional; settings: dose 5 µmol/L, at 5 µM
SK-OV-3 [7] = assay: Induction of apoptosis in human SK-OV-3 cells assessed as necrotic cells at 15 umol/L incubated for 24 hrs by Annexin V-FITC/PI staining based flow cytometric analysis (reference value: 0.00 %); format: functional; settings: dose 15 µmol/L, at 15 µM
SK-OV-3 [8] = assay: Induction of apoptosis in human SK-OV-3 cells assessed as necrotic cells at 20 umol/L incubated for 24 hrs by Annexin V-FITC/PI staining based flow cytometric analysis (reference value: 0.00 %); format: functional; settings: dose 20 µmol/L, at 20 µM
SK-OV-3 [9] = assay: Induction of apoptosis in human SK-OV-3 cells assessed as early apoptotic cells at 5 umol/L incubated for 24 hrs by Annexin V-FITC/PI staining based flow cytometric analysis (reference value: 4.66 %); format: functional; settings: dose 5 µmol/L, at 5 µM
SK-OV-3 [10] = assay: Induction of apoptosis in human SK-OV-3 cells assessed as necrotic cells at 25 umol/L incubated for 24 hrs by Annexin V-FITC/PI staining based flow cytometric analysis (reference value: 0.00 %); format: functional; settings: dose 25 µmol/L, at 25 µM
SK-OV-3 [11] = assay: Induction of apoptosis in human SK-OV-3 cells assessed as necrotic cells at 10 umol/L incubated for 24 hrs by Annexin V-FITC/PI staining based flow cytometric analysis (reference value: 0.00 %); format: functional; settings: dose 10 µmol/L, at 10 µM
SK-OV-3 [12] = assay: Induction of apoptosis in human SK-OV-3 cells assessed as viable cells at 25 umol/L incubated for 24 hrs by Annexin V-FITC/PI staining based flow cytometric analysis (reference value: 89.83 %); format: functional; settings: SK-OV-3, 24 h, dose 25 µmol/L, read-out: Activity
SK-OV-3 [13] = assay: Induction of apoptosis in human SK-OV-3 cells assessed as viable cells at 15 umol/L incubated for 24 hrs by Annexin V-FITC/PI staining based flow cytometric analysis (reference value: 89.83 %); format: functional; settings: SK-OV-3, 24 h, dose 15 µmol/L, read-out: Activity
SK-OV-3 [14] = assay: Induction of apoptosis in human SK-OV-3 cells assessed as late apoptotic cells at 5 umol/L incubated for 24 hrs by Annexin V-FITC/PI staining based flow cytometric analysis (reference value: 5.51 %); format: functional; settings: dose 5 µmol/L, at 5 µM
SK-OV-3 [15] = assay: Induction of apoptosis in human SK-OV-3 cells assessed as viable cells at 5 umol/L incubated for 24 hrs by Annexin V-FITC/PI staining based flow cytometric analysis (reference value: 89.83 %); format: functional; settings: SK-OV-3, 24 h, dose 5 µmol/L, read-out: Activity
SK-OV-3 [16] = assay: Induction of apoptosis in human SK-OV-3 cells assessed as late apoptotic cells at 20 umol/L incubated for 24 hrs by Annexin V-FITC/PI staining based flow cytometric analysis (reference value: 5.51 %); format: functional; settings: dose 20 µmol/L, at 20 µM
SK-OV-3 [17] = assay: Induction of apoptosis in human SK-OV-3 cells assessed as viable cells at 20 umol/L incubated for 24 hrs by Annexin V-FITC/PI staining based flow cytometric analysis (reference value: 89.83 %); format: functional; settings: SK-OV-3, 24 h, dose 20 µmol/L, read-out: Activity
SK-OV-3 [18] = assay: Induction of apoptosis in human SK-OV-3 cells assessed as early apoptotic cells at 20 umol/L incubated for 24 hrs by Annexin V-FITC/PI staining based flow cytometric analysis (reference value: 4.66 %); format: functional; settings: dose 20 µmol/L, at 20 µM
SK-OV-3 [19] = assay: Induction of apoptosis in human SK-OV-3 cells assessed as early apoptotic cells at 25 umol/L incubated for 24 hrs by Annexin V-FITC/PI staining based flow cytometric analysis (reference value: 4.66 %); format: functional; settings: dose 25 µmol/L, at 25 µM
SK-OV-3 [20] = assay: Induction of apoptosis in human SK-OV-3 cells assessed as late apoptotic cells at 10 umol/L incubated for 24 hrs by Annexin V-FITC/PI staining based flow cytometric analysis (reference value: 5.51 %); format: functional; settings: dose 10 µmol/L, at 10 µM
SK-OV-3 [21] = assay: Induction of apoptosis in human SK-OV-3 cells assessed as early apoptotic cells at 15 umol/L incubated for 24 hrs by Annexin V-FITC/PI staining based flow cytometric analysis (reference value: 4.66 %); format: functional; settings: dose 15 µmol/L, at 15 µM
SK-OV-3 [22] = assay: Induction of apoptosis in human SK-OV-3 cells assessed as early apoptotic cells at 10 umol/L incubated for 24 hrs by Annexin V-FITC/PI staining based flow cytometric analysis (reference value: 4.66 %); format: functional; settings: dose 10 µmol/L, at 10 µM

Question: For `C[C@]12CC[C@@H]3c4ccc(OCCCCCCCCCCCC[Se]C#N)cc4CC[C@H]3[C@@H]1CCC2=O`, which IC50 (T47D) is on record?
Answer: 19.7 µM

Question: And the IC50 (HeLa)?
Answer: 18.2 µM

Question: And the IC50 (HepG2)?
Answer: > 100 µM

Question: And the IC50 (MCF7)?
Answer: 27.5 µM

Question: And the IC50 at 72 h [1]?
Answer: 16.5 µM

Question: And the IC50 (SK-OV-3 [2])?
Answer: 46.6 µM

Question: Which IC50 (T47D) does the source give for `C[C@]12CC[C@@H]3c4ccc(O)cc4CC[C@H]3[C@@H]1CCC2NC(=O)C[Se]C#N` (some centres undefined) here?
Answer: 73.4 µM

Question: And the IC50 (HeLa)?
Answer: 70.4 µM

Question: And the IC50 (HepG2)?
Answer: 70.4 µM

Question: And the IC50 (MCF7)?
Answer: 73.4 µM

Question: And the IC50 at 72 h [1]?
Answer: 25.4 µM

Question: And the IC50 (SK-OV-3 [2])?
Answer: 30.5 µM

Question: Which results are given for `C[C@]12CC[C@@H]3c4cc(NC(=O)CCCCCCCCC[Se]C#N)c(O)cc4CC[C@H]3[C@@H]1CCC2=O`?
Answer: IC50 (T47D): 24.6 µM; IC50 (HeLa): 13.7 µM; IC50 (HepG2): 31 µM; IC50 (MCF7): 9.3 µM; IC50 at 72 h [1]: 17.2 µM; IC50 (SK-OV-3 [2]): 14.4 µM

Question: Which results are given for `C[C@]12CC[C@@H]3c4cc(NC(=O)CCCCCC[Se]C#N)c(O)cc4CC[C@H]3[C@@H]1CCC2=O`?
Answer: Activity (SK-OV-3 [3]): 50.48%; IC50 (T47D): 24.9 µM; Activity (SK-OV-3 [4]): 51.6%; viability at 10 µM (SK-OV-3 [5]): 30.2%; Activity (SK-OV-3 [6]): 0.04%; Activity (SK-OV-3 [7]): 0.2%; Activity (SK-OV-3 [8]): 0.17%; Activity (SK-OV-3 [9]): 27.75%; Activity (SK-OV-3 [10]): 0.33%; Activity (SK-OV-3 [11]): 0.45%; viability at 25 µM (SK-OV-3 [12]): 6.93%; viability at 15 µM (SK-OV-3 [13]): 16.3%; Activity (SK-OV-3 [14]): 28.34%; viability at 5 µM (SK-OV-3 [15]): 43.9%; Activity (SK-OV-3 [16]): 58.26%; IC50 (HeLa): 10.2 µM; IC50 (HepG2): 10.1 µM; viability at 20 µM (SK-OV-3 [17]): 12.5%; IC50 (MCF7): 10.1 µM; Activity (SK-OV-3 [18]): 29.04%; Activity (SK-OV-3 [19]): 42.27%; IC50 at 72 h [1]: 14.4 µM; Activity (SK-OV-3 [20]): 36.97%; IC50 (SK-OV-3 [2]): 8.2 µM; Activity (SK-OV-3 [21]): 31.88%; Activity (SK-OV-3 [22]): 32.38%

Question: For `COc1ccc2c(c1)CC[C@@H]1[C@@H]2CC[C@]2(C)/C(=N/OC(=O)c3ccc(C[Se]C#N)cc3)CC[C@@H]12`, which IC50 (T47D) is on record?
Answer: 24.2 µM

Question: And the IC50 (HeLa)?
Answer: 21 µM

Question: What about the IC50 (HepG2) of the same molecule?
Answer: 80.4 µM

Question: And the IC50 (MCF7)?
Answer: 3.9 µM

Question: What about the IC50 at 72 h [1] of the same molecule?
Answer: 23.2 µM

Question: And the IC50 (SK-OV-3 [2])?
Answer: 69 µM

Question: For `C[C@]12CC[C@@H]3c4ccc(OCCC[Se]C#N)cc4CC[C@H]3[C@@H]1CCC2=O`, which IC50 (T47D) is on record?
Answer: > 100 µM

Question: And the IC50 (HeLa)?
Answer: 18.2 µM

Question: And the IC50 (HepG2)?
Answer: > 100 µM

Question: What about the IC50 (MCF7) of the same molecule?
Answer: 48.1 µM

Question: And the IC50 at 72 h [1]?
Answer: 43.9 µM

Question: What about the IC50 (SK-OV-3 [2]) of the same molecule?
Answer: 54.6 µM

Question: What does the source list for `COc1ccc2c(c1)CC[C@@H]1[C@@H]2CC[C@]2(C)C(NC(=O)C[Se]C#N)CC[C@@H]12` (some centres undefined)?
Answer: IC50 (T47D): 75.9 µM; IC50 (HeLa): 16.2 µM; IC50 (HepG2): 10.5 µM; IC50 (MCF7): 56.1 µM; IC50 at 72 h [1]: 15 µM; IC50 (SK-OV-3 [2]): 30.6 µM

Question: For `C[C@]12CC[C@@H]3c4ccc(OCC[Se]C#N)cc4CC[C@H]3[C@@H]1CCC2=O`, which IC50 (HeLa) is on record?
Answer: 20.2 µM

Question: What about the IC50 (HepG2) of the same molecule?
Answer: > 100 µM

Question: And the IC50 (MCF7)?
Answer: 52.3 µM

Question: What about the IC50 at 72 h [1] of the same molecule?
Answer: 51.1 µM

Question: And the IC50 (SK-OV-3 [2])?
Answer: 60.3 µM

Question: Which IC50 (T47D) does the source give for `C[C@]12CC[C@@H]3c4ccc(O)cc4CC[C@H]3[C@@H]1CCC2NC(=O)c1ccc(C[Se]C#N)cc1` (some centres undefined) here?
Answer: 25.1 µM

Question: What about the IC50 (HeLa) of the same molecule?
Answer: 13.7 µM

Question: And the IC50 (HepG2)?
Answer: 16.1 µM

Question: And the IC50 (MCF7)?
Answer: 17.2 µM

Question: And the IC50 at 72 h [1]?
Answer: 13.4 µM

Question: What about the IC50 (SK-OV-3 [2]) of the same molecule?
Answer: 27.7 µM

Question: With `C[C@]12CC[C@H](O)CC1=CC[C@@H]1[C@@H]2CC[C@]2(C)C(c3cccnc3)=CC[C@@H]12` [ABIRATERONE] as the molecule, how does the IC50 (T47D) read?
Answer: 34.7 µM

Question: And the IC50 (HeLa)?
Answer: 16.9 µM

Question: What about the IC50 (HepG2) of the same molecule?
Answer: 59.8 µM

Question: What about the IC50 (MCF7) of the same molecule?
Answer: 38.2 µM

Question: What about the IC50 at 72 h [1] of the same molecule?
Answer: > 100 µM

Question: What about the IC50 (SK-OV-3 [2]) of the same molecule?
Answer: 59.5 µM
